Data reported in patent US20200037588A1, “METHODS OF A DROSOPHILA MODEL FOR CHRONIC MYELOID LEUKEMIA (CML) TREATMENT” (American University of Beirut, priority 2018, published 2020).
Read-outs that look alike come from different tables or passages of the source.

Key:
[1] = system: GMR-GAL4>w1118 control flies; conditions: in vivo
BCR-ABL1 = conditions: cited from earlier work
[2] = system: GMR-GAL4>w1118 control flies; assay: Eye development of control flies fed TKI (SEM)

Cc1nc(Nc2ncc(C(=O)Nc3c(C)cccc3Cl)s2)cc(N2CCN(CCO)CC2)n1 [dasatinib]
eye development in control flies fed drug (in words) [1]: Normal development

Cc1ccc(NC(=O)c2ccc(CN3CCN(C)CC3)cc2)cc1Nc1nccc(-c2cccnc2)n1 [imatinib]
eye development in control flies fed drug (in words) [1]: Normal development

Cc1cn(-c2cc(NC(=O)c3ccc(C)c(Nc4nccc(-c5cccnc5)n4)c3)cc(C(F)(F)F)c2)cn1 [nilotinib]
potency for BCR-AB1L inhibition in vitro compared to imatinib (BCR-ABL1): 20 fold | eye development in control flies fed drug (in words) [1]: Normal development

Cc1ccc(C(=O)Nc2ccc(CN3CCN(C)CC3)c(C(F)(F)F)c2)cc1C#Cc1cnc2cccnn12 [ponatinib]
eye development in control flies fed drug (in words) [2]: Normal development
